Assay [1] relates to nitrification. As to the kind of experiment: % NH4-N recovery from fertilized NH4-N in soil Limburgerhof. As to conditions: 20° C. As to the method: The compounds according to the invention have been further tested in terms of their % NH4—N recovery from fertilized NH4—N.
The compounds according to general formula I were tested as follows in terms of the inhibition of nitrification:
100 g soil (soil Limburgerhof with pH(CaCl2) 6.8; 73% sand, 23% silt, 4% clay, which is classified according to FAO as a sandy loam) is filled into 500 ml plastic bottles and is moistened to 50% water holding capacity. The soil is incubated at 20° C. for two weeks prior to the experiments to activate the microbial biomass. 1 ml test solution, containing the compounds of formula I or the comparative compounds in the appropriate concentration (0.1, 0.3 or 1% (w/w) of fertilized NH4—N), and 10 mg nitrogen in the form of ammoniumsulfate-N(NH4—N) is added to the soil and everything mixed well. Unfertilized controls received 1 ml pure water. Bottles are capped but loosely to allow air exchange. The bottles are then incubated at 20° C. for 14 days and 28 days.
For analysis, 300 ml of a 1% K2SO4-solution is added to the bottle containing the soil and shaken for 2 hours in a horizontal shaker at 150 rpm. Then the whole solution is filtered through a filter (Macherey-Nagel Filter MN 807%). Ammonium content is then analyzed in the filtrate using an autoanalyzer. Ammonium was quantified via an indophenol blue dye at 660 nm.
The nitrification inhibition is expressed as % of NH4—N recovery from fertilized NH4—N(100%) after subtraction of unfertilized control soil. The number of replicates is 4.
For comparison of the % NH4—N recovery of the compound of the invention, i.e. Example 4, with the comparative compounds as shown above from different trials, the standard deviation of a common treatment of all trials with DMPP (3,4-dimethylpyrazole phosphate) was calculated. As the standard deviation was low, data from different trials were pooled together to compare the average % NH4—N recovery for the compound of the invention and the comparative compounds as shown above.

Assay [2] deals with nitrification. As to the kind of experiment: inhibition of nitrification in soil incubation (NI). To be noted: soil incubated at 20° C., 14 days; for NI @ 0.3%: compound at 0.3% of nitrogen N; for NI @ 1%: compound at 1% of nitrogen N; for NI @ 0.1%: compound at 0.1% of nitrogen N. The protocol:
The compounds of the invention have been tested as follows in terms of the inhibition of nitrification:
100 g soil is filled into 500 ml plastic bottles (e.g. soil sampled from the field) and is moistened to 50% water holding capacity. The soil is incubated at 20° C. for two weeks to activate the microbial biomass. 1 ml test solution, containing the compound of formula I in the appropriate concentration (usually 0.1, 0.3 or 1% of nitrogen N), or DMSO and 10 mg nitrogen in the form of ammoniumsulfate-N is added to the soil and everything mixed well. Bottles are capped but loosely to allow air exchange. The bottles are then incubated at 20° C. for 0 and 14 days.
For analysis, 300 ml of a 1% K2SO4-solution is added to the bottle containing the soil and shaken for 2 hours in a horizontal shaker at 150 rpm. Then the whole solution is filtered through a filter (Macherey-Nagel Filter MN 807%). Ammonium and nitrate content is then analyzed in the filtrate in an autoanalyzer at 550 nm (Merck, AA11).
The inhibition (NI® a specified concentration) is calculated as follows: […]

Assay [3] has as its system N2O emission. The experiment in a line: reduction of N2O emission, potted corn plants in greenhouse soil. Also noted: species or system Zea mais. As to conditions: 100 ppm ammonium sulfate, cumulated emissions over two weeks, relative to untreated but fertilized control. The protocol:
Example 2 was additionally tested in terms of the reduction of N20 emission Corn seeds (Zea mais, cultivar “Shorty”) were planted 1 seed/pot in 8 cm pots in standard greenhouse soil (mixture of peat, loam and sand) and grown in a greenhouse at 20° C. and 60% humidity. Plants were grown for ten days in a completely randomized set-up. On day 6, plants were watered but not fertilized to 50% water holding capacity then left to dry out. On day ten, the plants were separated out and each pot set onto a plant saucer designed with an inner compartment for the pot and an outer ring that is filled with water. At time 0 water with or without 100 ppm ammonium sulfate and with or without the given concentration of nitrification inhibitor (1% and 0.3%) was applied to the plant such that the water holding capacity of the soil was around 50-60%. Then a gas sampling chamber was placed over the plant saucer such that the rim fit into the ring filled with water to create a gas-tight chamber and 20 cc air from the chamber were drawn into a syringe and immediately emptied in to a Vacutainer (Labco, 12 ml volume). […] Samples were analyzed in a Shimadzu 2014 GC equipped with an ECD system. Data was calculated as the cumulated emissions over the measurement period and the % reduction of N20 emissions relative to the untreated but fertilized control was calculated.

We go through seven molecules from US20240351959A1, “USE OF ETHYNYLPYRIDINE COMPOUNDS AS NITRIFICATION INHIBITORS” (BASF SE, priority 2021, published 2024).

For `C[Si](C)(C)C#Cc1ccccn1` [Comparative Example A], the figures for the “% NH4—N recovery after 14 days” value in assay [1] (0.1 wt.-% relative to NH4—N), in assay [1] (0.3 wt.-% relative to NH4—N) and in assay [1] (1 wt.-% relative to NH4—N) were 46.50%, 60.30% and 67.80%, respectively. Moreover, the “% NH4—N recovery after 28 days” value in assay [1] (0.3 wt.-% relative to NH4—N) came out at 51.2%; in assay [1] (1 wt.-% relative to NH4—N) it was 68.1%.
Consider `C[Si](C)(C)C#Cc1ccc(Cl)cn1` [Comparative Example B], for which the “% NH4—N recovery after 14 days” value in assay [1] (0.1 wt.-% relative to NH4—N) amounted to 20.94%; in assay [1] (0.3 wt.-% relative to NH4—N), 44.40%; in assay [1] (1 wt.-% relative to NH4—N), 59.90%. The “% NH4—N recovery after 28 days” value turned out to be 11.1% in assay [1] (0.3 wt.-% relative to NH4—N) and 61.0% in assay [1] (1 wt.-% relative to NH4—N).
Consider `Clc1cccc(C(Cl)(Cl)Cl)n1` [Comparative Example, reference compound], for which, in assay [2], the “NI @ 0.3%” value turned out to be 35% and the “NI @ 1%” value amounted to 54%.
For the molecule `C#Cc1cc(Cl)ccn1` [Example 1], in assay [2], the “NI @ 0.1%” value is reported as 46% and the “NI @ 1%” value was found to be 83%.
Regarding `C#Cc1ccc(Cl)cn1` [Example 2], in assay [2], the “NI @ 0.1%” value worked out at 74% and the “NI @ 1%” value was 76%. For the same molecule, in assay [3] (nitrification inhibitor 0.3%), the “% reduction of N2O relative to control @ 0.3%” value is given as 91%. Also, in assay [3] (nitrification inhibitor 1%), the “% reduction of N2O relative to control @ 1%” value is given as 97%.
In the case of `C#Cc1ccc(Cl)nc1` [Example 3], in assay [2], the “NI @ 0.1%” value is reported as 68%, the “NI @ 0.3%” value is listed as 84% and the “NI @ 1%” value amounted to 94%.
For `C#Cc1ccc(Cl)cn1` [Example 4], the “% NH4—N recovery after 14 days” value is on record as 74.00% in assay [1] (0.1 wt.-% relative to NH4—N), 68.50% in assay [1] (0.3 wt.-% relative to NH4—N) and 72.00% in assay [1] (1 wt.-% relative to NH4—N). The figures for the “% NH4—N recovery after 28 days” value in assay [1] (0.3 wt.-% relative to NH4—N) and in assay [1] (1 wt.-% relative to NH4—N) were 59.0% and 56.0%, respectively.
